In PubChem BioAssay (NCI):
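Dose response: 5 concentrations. Exposure: 48 h. Format: 96-well plates. Endpoint: linear interpolation; highest concentration if not reached. At the TGI there is no net growth.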

How the values were obtained:
Test in all cases: inhibition of tumour cell growth, NCI panel, 48 h
U251 CNS = tested on: U251 CNS
A549 NSCLC = tested on: A549 NSCLC
NCI-H226 lung = tested on: NCI-H226 lung
SK-MEL-28 melanoma = tested on: SK-MEL-28 melanoma
DU-145 prostate = tested on: DU-145 prostate
HCC-2998 colon = tested on: HCC-2998 colon
TK-10 renal = tested on: TK-10 renal
RXF 393 renal = tested on: RXF 393 renal
NCI-H23 lung = tested on: NCI-H23 lung
UACC-62 melanoma = tested on: UACC-62 melanoma
K-562 leukemia = tested on: K-562 leukemia
OVCAR-3 ovarian = tested on: OVCAR-3 ovarian
MDA-MB-231 breast = tested on: MDA-MB-231 breast
HOP-62 NSCLC = tested on: HOP-62 NSCLC
COLO 205 colon = tested on: COLO 205 colon
MOLT-4 leukemia = tested on: MOLT-4 leukemia
MCF7 breast = tested on: MCF7 breast
SK-MEL-2 melanoma = tested on: SK-MEL-2 melanoma
OVCAR-8 ovarian = tested on: OVCAR-8 ovarian
SW-620 colon = tested on: SW-620 colon
ACHN renal = tested on: ACHN renal
BT-549 breast = tested on: BT-549 breast
NCI-H460 lung = tested on: NCI-H460 lung
OVCAR-5 ovarian = tested on: OVCAR-5 ovarian
HS 578T breast = tested on: HS 578T breast
RPMI-8226 leukemia = tested on: RPMI-8226 leukemia
SNB-75 CNS = tested on: SNB-75 CNS
KM12 colon = tested on: KM12 colon
HCT-116 colon = tested on: HCT-116 colon
MDA-N = tested on: MDA-N
T-47D breast = tested on: T-47D breast
SF-295 CNS = tested on: SF-295 CNS
UACC-257 melanoma = tested on: UACC-257 melanoma
SN12C renal = tested on: SN12C renal
SK-OV-3 ovarian = tested on: SK-OV-3 ovarian
HCT-15 colon = tested on: HCT-15 colon
786-0 renal = tested on: 786-0 renal
EKVX NSCLC = tested on: EKVX NSCLC
SR leukemia = tested on: SR leukemia
MDA-MB-435 = tested on: MDA-MB-435
NCI/ADR-RES ovarian = tested on: NCI/ADR-RES ovarian
SF-268 CNS = tested on: SF-268 CNS
SNB-19 CNS = tested on: SNB-19 CNS
OVCAR-4 ovarian = tested on: OVCAR-4 ovarian
LOX IMVI melanoma = tested on: LOX IMVI melanoma
M14 melanoma = tested on: M14 melanoma
A498 renal = tested on: A498 renal
PC-3 prostate = tested on: PC-3 prostate
UO-31 renal = tested on: UO-31 renal
CAKI-1 renal = tested on: CAKI-1 renal
SK-MEL-5 melanoma = tested on: SK-MEL-5 melanoma
HT29 colon = tested on: HT29 colon
NCI-H522 lung = tested on: NCI-H522 lung
CCRF-CEM leukemia = tested on: CCRF-CEM leukemia
SF-539 CNS = tested on: SF-539 CNS
IGROV1 ovarian = tested on: IGROV1 ovarian

O=C(O)CCC(N=C(C(=NC(CCC(=O)O)C(=O)O)c1ccccc1)c1ccccc1)C(=O)O (stereo not drawn)
TGI (U251 CNS): > 100000 nM
TGI (A549 NSCLC): > 100000 nM
TGI (NCI-H226 lung): > 100000 nM
TGI (SK-MEL-28 melanoma): > 100000 nM
TGI (DU-145 prostate): > 100000 nM
TGI (HCC-2998 colon): > 100000 nM
TGI (TK-10 renal): > 100000 nM
TGI (RXF 393 renal): > 100000 nM
TGI (NCI-H23 lung): > 100000 nM
TGI (UACC-62 melanoma): > 100000 nM
TGI (K-562 leukemia): > 100000 nM
TGI (OVCAR-3 ovarian): > 100000 nM
TGI (MDA-MB-231 breast): > 100000 nM
TGI (HOP-62 NSCLC): > 100000 nM
TGI (COLO 205 colon): > 100000 nM
TGI (MOLT-4 leukemia): > 100000 nM
TGI (MCF7 breast): > 100000 nM
TGI (SK-MEL-2 melanoma): > 100000 nM
TGI (OVCAR-8 ovarian): > 100000 nM
TGI (SW-620 colon): > 100000 nM
TGI (ACHN renal): > 100000 nM
TGI (BT-549 breast): > 100000 nM
TGI (NCI-H460 lung): > 100000 nM
TGI (OVCAR-5 ovarian): > 100000 nM
TGI (HS 578T breast): > 100000 nM
TGI (RPMI-8226 leukemia): > 100000 nM
TGI (SNB-75 CNS): > 100000 nM
TGI (KM12 colon): > 100000 nM
TGI (HCT-116 colon): > 100000 nM
TGI (MDA-N): > 100000 nM
TGI (T-47D breast): > 100000 nM
TGI (SF-295 CNS): > 100000 nM
TGI (UACC-257 melanoma): > 100000 nM
TGI (SN12C renal): > 100000 nM
TGI (SK-OV-3 ovarian): > 100000 nM
TGI (HCT-15 colon): > 100000 nM
TGI (786-0 renal): > 100000 nM
TGI (EKVX NSCLC): > 100000 nM
TGI (SR leukemia): > 100000 nM
TGI (MDA-MB-435): > 100000 nM
TGI (NCI/ADR-RES ovarian): > 100000 nM
TGI (SF-268 CNS): > 100000 nM
TGI (SNB-19 CNS): > 100000 nM
TGI (OVCAR-4 ovarian): > 100000 nM
TGI (LOX IMVI melanoma): > 100000 nM
TGI (M14 melanoma): > 100000 nM
TGI (A498 renal): > 100000 nM
TGI (PC-3 prostate): > 100000 nM
TGI (UO-31 renal): > 100000 nM

C#Cc1nc(N)c2ncn(C3OC(COS(N)(=O)=O)C(O)C3O)c2n1 (stereo not drawn)
TGI (U251 CNS): 449 nM
TGI (A549 NSCLC): 1560 nM
TGI (NCI-H226 lung): 49.1 nM
TGI (SK-MEL-28 melanoma): 298 nM
TGI (DU-145 prostate): 99.7 nM
TGI (HCC-2998 colon): 191 nM
TGI (TK-10 renal): 327 nM
TGI (CAKI-1 renal): 225 nM
TGI (RXF 393 renal): 86.6 nM
TGI (NCI-H23 lung): 136 nM
TGI (SK-MEL-5 melanoma): 344 nM
TGI (UACC-62 melanoma): 369 nM
TGI (K-562 leukemia): > 100000 nM
TGI (OVCAR-3 ovarian): 90.1 nM
TGI (MDA-MB-231 breast): < 47.6 nM
TGI (HT29 colon): 481 nM
TGI (HOP-62 NSCLC): 1970 nM
TGI (NCI-H522 lung): < 10 nM
TGI (MOLT-4 leukemia): < 25.8 nM
TGI (CCRF-CEM leukemia): < 25.8 nM
TGI (MCF7 breast): > 100000 nM
TGI (SK-MEL-2 melanoma): 19.6 nM
TGI (OVCAR-8 ovarian): 194 nM
TGI (SW-620 colon): 665 nM
TGI (ACHN renal): 74.3 nM
TGI (BT-549 breast): 349 nM
TGI (NCI-H460 lung): 634 nM
TGI (OVCAR-5 ovarian): 122 nM
TGI (HS 578T breast): 736 nM
TGI (RPMI-8226 leukemia): 110 nM
TGI (SNB-75 CNS): 349 nM
TGI (KM12 colon): 352 nM
TGI (HCT-116 colon): 288 nM
TGI (MDA-N): < 29.9 nM
TGI (T-47D breast): < 10 nM
TGI (SF-295 CNS): 3170 nM
TGI (SF-539 CNS): 198 nM
TGI (UACC-257 melanoma): 339 nM
TGI (SN12C renal): 256 nM
TGI (SK-OV-3 ovarian): < 10 nM
TGI (HCT-15 colon): 429 nM
TGI (786-0 renal): 797 nM
TGI (EKVX NSCLC): 1290 nM
TGI (SR leukemia): < 17.2 nM
TGI (MDA-MB-435): 71.7 nM
TGI (NCI/ADR-RES ovarian): < 29.1 nM
TGI (SF-268 CNS): 688 nM
TGI (SNB-19 CNS): 266 nM
TGI (LOX IMVI melanoma): < 32.5 nM
TGI (M14 melanoma): 457 nM
TGI (A498 renal): < 30.2 nM
TGI (PC-3 prostate): 213 nM
TGI (IGROV1 ovarian): 114 nM
TGI (UO-31 renal): 150 nM
